Data as given in US12409172B2, “Dosage regimen” (UNION therapeutics A/S, priority 2023, dated 2025).

Experiments:
[1] = tested on: adults with moderate-to-severe plaque-type psoriasis; assay: Phase 2b dose-ranging study in psoriasis (Example 3): treatment-emergent adverse events and discontinuations; type: in vivo, human
Description: (§1) • Percentage change in Psoriasis […] and Severity Index (PASI) score from Baseline at Week 16. Key Secondary Endpoints • Patients achieving 75% reduction in PASI (PASI75) response at Week 16. • Patients achieving a score of Clear (0) or Almost Clear (1) and an at least 2-point improvement in Investigator Global Assessment (IGA) at Week 16. […] Safety Endpoints: • The occurrence, severity, and seriousness of treatment-emergent adverse events (TEAEs) reported over the 16-week Treatment Period and the 4-week Follow-up Period. • Changes from Baseline in physical examination; vital sign measurements (body temperature, respiration rate, heart rate, and systolic and diastolic blood pressure measurements); and body weight over the 16-week Treatment Period and the 4-week Follow-up Period. • Changes from Baseline in electrocardiogram (ECG) findings over the 16-week Treatment Period and the 4-week Follow-up Period. • Changes from Baseline in safety laboratory values (haematology, serum chemistry, and urinalysis) over the 16-week Treatment Period and the 4-week Follow-up Period. • Hospital Anxiety and Depression Scale at each visit except Week 2. • Columbia-Suicide Severity Rating Scale (C-SSRS) at each visit except Weeks 1 and 2. Exploratory Endpoints: • Change from Baseline in Physician's Global Assessment of Fingernails (PGA-F) at Week 16. • Change in Scalp-Specific Investigator Global Assessment (ss-IGA) from Baseline at Week 16 in the subgroup of patients with Baseline score of at least 2 (mild scalp psoriasis). • Change from Baseline of scalp itch Numeric Rating Scale (NRS) at Week 16 in the subgroup of patients with Baseline score of at least 4 on the 11-point NRS. • Change from Baseline in joint pain NRS at Week 16 in patients with psoriatic arthritis (PsA) and a Baseline joint pain score of at least 4. • Change in cardiovascular risk factors at Week 16. The following parameters will be collected: weight, body mass index, waist and hip circumferences, blood pressure, fasting serum glucose, triglycerides, cholesterol (total and high-density lipoprotein/low-density lipoprotein fractions), and C-reactive protein. • Change from Baseline in skin biomarkers at Week 16 collected via tape stripping and analysed using proteomic methods. • Plasma levels of the drug and its metabolites at scheduled visits. Study Design
(§2) At Baseline and each visit from Week 4 onwards, PASI, BSA, IGA, and PSS were assessed. Quality of life was assessed by administration of DLQI at Baseline and at Weeks 16 and 20 visits. Additional efficacy parameters include: an ss-IGA, a Physician Global Assessment of fingernail psoriasis (PGA-F), and patient's joint pain NRS for those with a diagnosis of PsA. These parameters were assessed at Baseline and Weeks 16 and 20. Safety evaluations include adverse events (Aes), laboratory and vital sign assessments, physical examinations, as well as mood change evaluation by patient (Hospital Anxiety and Depression Scale) and suicidal ideation evaluation by Investigator (C-SSRS). A panel of cardiovascular risk factors were assessed at Baseline and Week 16.

CYP2D6 = CYP2D6 (Homo sapiens, UniProt P10635); assay: CYP2D6 inhibition in vitro; type: in vitro ADME
Description: Concomitant use of orismilast • with other drugs mainly metabolized by the cytochrome CYP2D6 has not been studied clinically.

[2] = tested on: adults with moderate-to-severe plaque-type psoriasis; assay: Phase 2b dose-ranging study in psoriasis (Example 3): efficacy (PASI), incl. body-weight sub-group and post-hoc analysis; type: in vivo, human
Description: as §1
A multicentre, randomized, double-blind, placebo-controlled, parallel group, Phase 2b dose-ranging study designed to assess the efficacy and safety of modified-release orismilast compared with placebo in adult patients with moderate-to-severe plaque-type psoriasis. Efficacy and safety outcomes will be evaluated to select an appropriate orismilast dose for subsequent Phase 3 studies.
After a Screening visit up to 28 days before Baseline, 202 patients were assigned randomly in a 1:1:1:1 ratio to receive 1 of the 3 orismilast doses (20 mg, 30 mg, or 40 mg) or placebo twice daily (BID) for 16 weeks, with a 4-week Follow-up visit. Administration will begin at Baseline with a dose titration period. The maximum duration of study participation was approximately 24 weeks.
as §2, with “16. […]” for “16.”

[3] = tested on: PDE4B and PDE4D subtype splice variants; assay: PDE4 inhibition in vitro; type: biochemical
[4] = post-hoc group 20 mg BID (<100 kg)/30 mg BID (≥100 kg), NRI

Chain of CYP2D6 (P10635 whole entry): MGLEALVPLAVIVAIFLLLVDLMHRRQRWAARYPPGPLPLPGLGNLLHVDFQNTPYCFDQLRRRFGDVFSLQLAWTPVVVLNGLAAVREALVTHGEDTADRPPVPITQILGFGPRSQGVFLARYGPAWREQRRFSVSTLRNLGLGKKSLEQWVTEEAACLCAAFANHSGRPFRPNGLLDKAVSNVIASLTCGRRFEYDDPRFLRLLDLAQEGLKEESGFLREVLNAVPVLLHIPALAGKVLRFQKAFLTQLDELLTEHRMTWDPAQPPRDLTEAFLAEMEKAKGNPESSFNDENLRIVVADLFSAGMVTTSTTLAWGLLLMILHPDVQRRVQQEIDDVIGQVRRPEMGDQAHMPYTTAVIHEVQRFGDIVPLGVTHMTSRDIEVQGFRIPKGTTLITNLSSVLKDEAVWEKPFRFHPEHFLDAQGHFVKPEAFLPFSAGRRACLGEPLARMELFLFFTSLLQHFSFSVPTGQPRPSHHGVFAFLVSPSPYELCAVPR

With `O=C(Cc1c(Cl)c[n+]([O-])cc1Cl)c1ccc(OC(F)F)c2c1OC1(CCS(=O)(=O)CC1)O2` [orismilast, 2-(3,5-dichloro-1-oxidopyridin-1-ium-4-yl)-1-[7-(difluoromethoxy)-1′,1′-dioxospiro[1,3-benzodioxole-2,4′-thiane]-4-yl]ethanone] the “Abdominal pain upper, adverse event leading to treatment discontinuation” value ([1]; 20 mg BID) was 2.1%, the “Abdominal pain upper, treatment-emergent adverse event” value ([1]; 20 mg BID) was 2.1% and the “Diarrhea (incl. loose stool), adverse event leading to treatment discontinuation” value (“Diarrhea … to treatment discontinuation” for short) ([1]; 20 mg BID) was 10.4%. For the same compound, the “Diarrhea (incl. loose stool), treatment-emergent adverse event” value (from here on “Diarrhea … treatment-emergent adverse event”) ([1]; 20 mg BID) was 37.5%, the “Dizziness, adverse event leading to treatment discontinuation” value (from here on “Dizziness, adverse event leading”) ([1]; 20 mg BID) was 2.1% and the “Dizziness, treatment-emergent adverse event” value ([1]; 20 mg BID) was 6.3%. For the same compound, the “Headache, adverse event leading to treatment discontinuation” value (shortened to “Headache, adverse event leading”) ([1]; 20 mg BID) was 2.1%, the “Headache, treatment-emergent adverse event” value ([1]; 20 mg BID) was 12.5% and the “Nausea, adverse event leading to treatment discontinuation” value (shortened to “Nausea, adverse event leading”) ([1]; 20 mg BID) was 4.2%. The “Nausea, treatment-emergent adverse event” value ([1]; 20 mg BID) was 22.9%, the “Vomiting, adverse event leading to treatment discontinuation” value (“Vomiting, adverse event leading” for short) ([1]; 20 mg BID) was 0% and the “Vomiting, treatment-emergent adverse event” value ([1]; 20 mg BID) was 6.3%. The “discontinuations due to adverse events” value ([1]; 20 mg BID) was 21%, the “Abdominal pain upper, adverse event leading to treatment discontinuation” value ([1]; 30 mg BID) was 2.0% and the “Abdominal pain upper, treatment-emergent adverse event” value ([1]; 30 mg BID) was 6.0%. For the same compound, the “Diarrhea … to treatment discontinuation” value ([1]; 30 mg BID) was 6.0%, the “Diarrhea … treatment-emergent adverse event” value ([1]; 30 mg BID) was 48.0% and the “Dizziness, adverse event leading” value ([1]; 30 mg BID) was 2.0%. For the same compound, the “Dizziness, treatment-emergent adverse event” value ([1]; 30 mg BID) was 14.0%, the “Headache, adverse event leading” value ([1]; 30 mg BID) was 4.0% and the “Headache, treatment-emergent adverse event” value ([1]; 30 mg BID) was 26.6%. The “Nausea, adverse event leading” value ([1]; 30 mg BID) was 8.0%, the “Nausea, treatment-emergent adverse event” value ([1]; 30 mg BID) was 38.0% and the “Vomiting, adverse event leading” value ([1]; 30 mg BID) was 2.0%. The “Vomiting, treatment-emergent adverse event” value ([1]; 30 mg BID) was 8.0%, the “discontinuations due to adverse events” value ([1]; 30 mg BID) was 20% and the “Abdominal pain upper, adverse event leading to treatment discontinuation” value ([1]; 40 mg BID) was 7.5%. For the same compound, the “Abdominal pain upper, treatment-emergent adverse event” value ([1]; 40 mg BID) was 11.3%, the “Diarrhea … to treatment discontinuation” value ([1]; 40 mg BID) was 20.8% and the “Diarrhea … treatment-emergent adverse event” value ([1]; 40 mg BID) was 45.3%. The “Dizziness, adverse event leading” value ([1]; 40 mg BID) was 1.9%, the “Dizziness, treatment-emergent adverse event” value ([1]; 40 mg BID) was 15.1% and the “Headache, adverse event leading” value ([1]; 40 mg BID) was 3.8%. For the same compound, the “Headache, treatment-emergent adverse event” value ([1]; 40 mg BID) was 20.8%, the “Nausea, adverse event leading” value ([1]; 40 mg BID) was 11.3% and the “Nausea, treatment-emergent adverse event” value ([1]; 40 mg BID) was 41.5%. For the same compound, the “Vomiting, adverse event leading” value ([1]; 40 mg BID) was 5.7%, the “Vomiting, treatment-emergent adverse event” value ([1]; 40 mg BID) was 13.2% and the “inhibition of CYP2D6” value (CYP2D6) was “competitive direct inhibitor”. For the same compound, the “mean percentage change in PASI from baseline to Week 16” value (from here on “mean percentage change in PASI”) ([2]; 20 mg BID) was −52.6%, the PASI-75 responders ([2]; 20 mg BID, NRI) was 35% and the PASI-90 responders ([2]; 20 mg BID, NRI) was 23%. The PASI-100 responders ([2]; 20 mg BID, NRI) was 8%, the “mean percentage change in PASI” value ([2]; 30 mg BID) was −61.2% and the PASI-75 responders ([2]; 30 mg BID, NRI) was 44%. For the same compound, the PASI-90 responders ([2]; 30 mg BID, NRI) was 20%, the PASI-100 responders ([2]; 30 mg BID, NRI) was 8% and the “mean percentage change in PASI” value ([2]; 40 mg BID) was −63.7%. The “efficacy of post-hoc group 20 mg BID (<100 kg)/30 mg BID (≥100 kg) relative to all pre-specified treatment arms” value ([2]; NRI) was “improved”, the “efficacy of the 20 mg BID dose vs the 30 mg BID dose in patients weighing ≥100 kg” value ([2]; PASI50, PASI75, PASI90, weeks 4, 8, 12 and 16) was “less efficacious” and the “efficacy of the 20 mg BID dose vs the 30 mg BID dose in patients weighing <100 kg at baseline” value ([2]; PASI75 and in particular PASI90) was “(similar or) more efficacious”. For the same compound, the “treatment effect versus placebo, percentage change in PASI from baseline to Week 16 (primary endpoint)” value ([2]; all doses (20, 30, 40 mg BID)) was “statistically significant treatment effect”, the PASI-75 responders [2, 4] was 46% and the PASI-90 responders [2, 4] was 29%. For the same compound, the PASI-100 responders [2, 4] was 10%, the “efficacy (PASI50, PASI75, PASI90) of the 30 mg BID dose in patients weighing ≥100 kg compared to <100 kg at baseline” value ([2]; weeks 4, 8, 12 and 16) was “consistently higher” and the “inhibition of the PDE4 isoforms PDE4D3 and PDE4B2” value [3] was “selective inhibitor”.
